Measured values reported in the supplement of paper PMC11208160.

Test: recombinant UMI read abundance after kanamycin selection (control-corrected) (log10(CPM+1)); higher = more efficient recombination; extreme values may be limits of the assay; sequences stand for … in AGTGCAGAGAAAATCGGCCAGTTTTCTCTGCCTGCAGTCCGCATGCCGTGGGACCCCTTGGGTTCTAACCTGTTGCCTAGATTTATGCAGCGGACTGCCTTTCTCCCAAAGTGATAAACCGG…AGGTTGGTTTCACT; site = the 11-nt donor
In short: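 Pooled Escherichia coli screen of donor and donor-binding-loop pairs for the IS621 bridge recombinase. Each pair sits with a 12-nt UMI on a plasmid carrying a promoterless kanamycin gene. The library was co-electroporated with a target plasmid encoding a fixed target and T7-inducible recombinase, then plated with IPTG (0.07 mM) plus kanamycin, or unselected, each in two replicates. Recombinant UMIs were PCR-amplified across the donor–target junction and sequenced. Counts became CPM, averaged over replicates, scaled by control-derived factors and reported as log10(CPM+1).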

Row | Sequence | recombinant UMI read abundance (log10)
1 | CCATTCTCATGGACCGGTTTTCCCGGTAATCCGTATTTGGG (site CCATTCTCTCC) | 0
2 | CCATTCTCATGGACCGGTTTTCCCGGTAATCCGTATTTGGG (site CCCTTCTCTCC) | 0.00367
3 | CCATTCTCATGGACCGGTTTTCCCGGTAATCCGTATTTGGG (site CCGTTCTCTCC) | 0.00306
4 | CCATTCTCATGGACCGGTTTTCCCGGTAATCCGTATTTGGG (site CCTTTCTCTCC) | 0.0196
5 | CCATTTACATGGACCGGTTTTCCCGGTAATCCGTATTTGCT (site CCATTTACTAG) | 0.933
6 | CCATTTACATGGACCGGTTTTCCCGGTAATCCGTATTTGCT (site CCCTTTACTAG) | 0
7 | CCATTTACATGGACCGGTTTTCCCGGTAATCCGTATTTGCT (site CCGTTTACTAG) | 0
8 | CCATTTACATGGACCGGTTTTCCCGGTAATCCGTATTTGCT (site CCTTTTACTAG) | 0.00937
9 | CCCAACCCATGGACCGGTTTTCCCGGTAATCCGTATTTGTG (site CCCAACCCTCA) | 0.0205
10 | CCCACCGCATGGACCGGTTTTCCCGGTAATCCGTATTTGCC (site CCCACCGCTGG) | 0.815
11 | CCCAGATCATGGACCGGTTTTCCCGGTAATCCGTATTTGGA (site CCCAGATCTTC) | 0.0263
12 | CCCAGGACATGGACCGGTTTTCCCGGTAATCCGTATTTGCG (site CCCAGGACTCG) | 0.893
13 | CCCAGGGCATGGACCGGTTTTCCCGGTAATCCGTATTTGTG (site CCCAGGGCTCA) | 0.475
14 | CCCATATCATGGACCGGTTTTCCCGGTAATCCGTATTTGCC (site CCCATATCTGA) | 0
15 | CCCATATCATGGACCGGTTTTCCCGGTAATCCGTATTTGCC (site CCCATATCTGC) | 0
16 | CCCATATCATGGACCGGTTTTCCCGGTAATCCGTATTTGCC (site CCCATATCTGG) | 0.328
17 | CCCATATCATGGACCGGTTTTCCCGGTAATCCGTATTTGCC (site CCCATATCTGT) | 0.454
18 | CCCATATCATGGACCGGTTTTCCCGGTAATCCGTATTTGTG (site CCCATATCTAA) | 0.00783
19 | CCCATATCATGGACCGGTTTTCCCGGTAATCCGTATTTGTG (site CCCATATCTCA) | 0.356
20 | CCCATATCATGGACCGGTTTTCCCGGTAATCCGTATTTGTG (site CCCATATCTGA) | 0
21 | CCCATATCATGGACCGGTTTTCCCGGTAATCCGTATTTGTG (site CCCATATCTTA) | 0.0103
22 | CCCATGTCATGGACCGGTTTTCCCGGTAATCCGTATTTGTC (site CCCATATCTGA) | 0
23 | CCCATGTCATGGACCGGTTTTCCCGGTAATCCGTATTTGTC (site CCCATCTCTGA) | 0
24 | CCCATGTCATGGACCGGTTTTCCCGGTAATCCGTATTTGTC (site CCCATGTCTGA) | 1.64
25 | CCCATGTCATGGACCGGTTTTCCCGGTAATCCGTATTTGTC (site CCCATTTCTGA) | 0

Row | Sequence | recombinant UMI read abundance (log10)
26 | CCCATTTCATGGACCGGTTTTCCCGGTAATCCGTATTTGTC (site CCCATATCTGA) | 0
27 | CCCATTTCATGGACCGGTTTTCCCGGTAATCCGTATTTGTC (site CCCATCTCTGA) | 0
28 | CCCATTTCATGGACCGGTTTTCCCGGTAATCCGTATTTGTC (site CCCATGTCTGA) | 0
29 | CCCATTTCATGGACCGGTTTTCCCGGTAATCCGTATTTGTC (site CCCATTTCTGA) | 0
30 | CCCCAATCATGGACCGGTTTTCCCGGTAATCCGTATTTGTG (site CCCCAATCTCA) | 0.678
31 | CCCCACACATGGACCGGTTTTCCCGGTAATCCGTATTTGAA (site CCCCACACTTA) | 0.0109
32 | CCCCACACATGGACCGGTTTTCCCGGTAATCCGTATTTGAA (site CCCCACACTTC) | 0.33
33 | CCCCACACATGGACCGGTTTTCCCGGTAATCCGTATTTGAA (site CCCCACACTTG) | 0
34 | CCCCACACATGGACCGGTTTTCCCGGTAATCCGTATTTGAA (site CCCCACACTTT) | 0.557
35 | CCCCACACATGGACCGGTTTTCCCGGTAATCCGTATTTGTA (site ACCCACACTTA) | 0.0144
36 | CCCCACACATGGACCGGTTTTCCCGGTAATCCGTATTTGTA (site CACCACACTTA) | 0.0132
37 | CCCCACACATGGACCGGTTTTCCCGGTAATCCGTATTTGTA (site CCACACACTTA) | 0.0146
38 | CCCCACACATGGACCGGTTTTCCCGGTAATCCGTATTTGTA (site CCCAACACTTA) | 0
39 | CCCCACACATGGACCGGTTTTCCCGGTAATCCGTATTTGTA (site CCCCAAACTTA) | 0
40 | CCCCACACATGGACCGGTTTTCCCGGTAATCCGTATTTGTA (site CCCCACACTAA) | 0.0177
41 | CCCCACACATGGACCGGTTTTCCCGGTAATCCGTATTTGTA (site CCCCACACTCA) | 0.0202
42 | CCCCACACATGGACCGGTTTTCCCGGTAATCCGTATTTGTA (site CCCCACACTGA) | 0
43 | CCCCACACATGGACCGGTTTTCCCGGTAATCCGTATTTGTA (site CCCCACACTTA) | 1.14
44 | CCCCACACATGGACCGGTTTTCCCGGTAATCCGTATTTGTA (site CCCCACACTTC) | 0.0125
45 | CCCCACACATGGACCGGTTTTCCCGGTAATCCGTATTTGTA (site CCCCACACTTG) | 0.586
46 | CCCCACACATGGACCGGTTTTCCCGGTAATCCGTATTTGTA (site CCCCACACTTT) | 0.00983
47 | CCCCACACATGGACCGGTTTTCCCGGTAATCCGTATTTGTA (site CCCCACCCTTA) | 0.00838
48 | CCCCACACATGGACCGGTTTTCCCGGTAATCCGTATTTGTA (site CCCCACGCTTA) | 0.0198
49 | CCCCACACATGGACCGGTTTTCCCGGTAATCCGTATTTGTA (site CCCCACTCTTA) | 0.273
50 | CCCCACACATGGACCGGTTTTCCCGGTAATCCGTATTTGTA (site CCCCAGACTTA) | 0.0244

Row | Sequence | recombinant UMI read abundance (log10)
51 | CCCCACACATGGACCGGTTTTCCCGGTAATCCGTATTTGTA (site CCCCATACTTA) | 0.0127
52 | CCCCACACATGGACCGGTTTTCCCGGTAATCCGTATTTGTA (site CCCCCCACTTA) | 0.0246
53 | CCCCACACATGGACCGGTTTTCCCGGTAATCCGTATTTGTA (site CCCCGCACTTA) | 0.0118
54 | CCCCACACATGGACCGGTTTTCCCGGTAATCCGTATTTGTA (site CCCCTCACTTA) | 0.0137
55 | CCCCACACATGGACCGGTTTTCCCGGTAATCCGTATTTGTA (site CCCGACACTTA) | 0.0189
56 | CCCCACACATGGACCGGTTTTCCCGGTAATCCGTATTTGTA (site CCCTACACTTA) | 0.0176
57 | CCCCACACATGGACCGGTTTTCCCGGTAATCCGTATTTGTA (site CCGCACACTTA) | 0.021
58 | CCCCACACATGGACCGGTTTTCCCGGTAATCCGTATTTGTA (site CCTCACACTTA) | 0.0102
59 | CCCCACACATGGACCGGTTTTCCCGGTAATCCGTATTTGTA (site CGCCACACTTA) | 0.016
60 | CCCCACACATGGACCGGTTTTCCCGGTAATCCGTATTTGTA (site CTCCACACTTA) | 0.113
61 | CCCCACACATGGACCGGTTTTCCCGGTAATCCGTATTTGTA (site GCCCACACTTA) | 0.00479
62 | CCCCACACATGGACCGGTTTTCCCGGTAATCCGTATTTGTA (site TCCCACACTTA) | 0.0139
63 | CCCCAGACATGGACCGGTTTTCCCGGTAATCCGTATTTGTA (site CCCCAAACTTA) | 0.459
64 | CCCCAGACATGGACCGGTTTTCCCGGTAATCCGTATTTGTA (site CCCCACACTTA) | 0.0077
65 | CCCCAGACATGGACCGGTTTTCCCGGTAATCCGTATTTGTA (site CCCCAGACTTA) | 0.691
66 | CCCCAGACATGGACCGGTTTTCCCGGTAATCCGTATTTGTA (site CCCCATACTTA) | 0.00999
67 | CCCCCCACATGGACCGGTTTTCCCGGTAATCCGTATTTGTA (site CCCCACACTTA) | 0.00745
68 | CCCCCCACATGGACCGGTTTTCCCGGTAATCCGTATTTGTA (site CCCCCCACTTA) | 0.82
69 | CCCCCCACATGGACCGGTTTTCCCGGTAATCCGTATTTGTA (site CCCCGCACTTA) | 0.0126
70 | CCCCCCACATGGACCGGTTTTCCCGGTAATCCGTATTTGTA (site CCCCTCACTTA) | 0.00445
71 | CCCCGCACATGGACCGGTTTTCCCGGTAATCCGTATTTGTA (site CCCCACACTTA) | 0.48
72 | CCCCGCACATGGACCGGTTTTCCCGGTAATCCGTATTTGTA (site CCCCCCACTTA) | 0.00659
73 | CCCCGCACATGGACCGGTTTTCCCGGTAATCCGTATTTGTA (site CCCCGCACTTA) | 1.16
74 | CCCCGCACATGGACCGGTTTTCCCGGTAATCCGTATTTGTA (site CCCCTCACTTA) | 0.00635
75 | CCCCGCCCATGGACCGGTTTTCCCGGTAATCCGTATTTGTC (site CCCCGCCCTGA) | 0
